Results from patent US20170362210A1, “ANTI-ESTROGENIC COMPOUNDS” (PFIZER INC., priority 2015, published 2017).
Where two headings read alike, the source gives them in different places. Marks after values point to notes of the source that are not given here.

Key:
[1] = test system: AP activity in ECC-1 cells; assay: Alkaline phosphatase (AP) assay in ECC-1 cells co-treated with 500 pM E2; format: cell-based, human; settings: 3 days
Experimental: (§1) Method for performing the alkaline phosphatase (AP) assay. ECC-1 cells (American Type Culture Collection, Manassas, Va.) were maintained in RPMI medium plus 10% fetal bovine serum at 37° C. At the beginning of the assay trypsinized cells were resuspended in RPMI medium plus 5% charcoal dextran stripped serum (CDSS, (Hyclone, Logan, Utah)) and plated at a density of 25-50 k cells per well into a 96-well plate for at least 6 hours. Representative compounds were diluted in serum-free medium and added 1:1 to plated cells in replicate wells (2.5% CDSS final). Plates were incubated for 3 days at 37° C. and subsequently frozen at −80° C. to lyse cells after removing the medium. Thawed plates were incubated with a chromogenic substrate of AP, p-nitrophenyl phosphate (Invitrogen, Grand Island, N.Y.), for 40 minutes at 40° C. Absorbances were read at 405 nm using a plate spectrophotometer. AP activity was normalized to 500 pM 17β-estradiol (E2), reported as the maximum activity observed for each individual experiment, regardless of dose.
AP activity was assayed as in Example 28 but cells were co-treated with 500 pM E2.

[2] = test system: AP activity in ECC-1 cells; assay: Alkaline phosphatase (AP) assay in ECC-1 uterine cells, induction of AP activity; format: cell-based, human; settings: 3 days, normalized to 500 pM E2, maximum activity observed regardless of dose
Experimental: as §1

ERα = target: T1, ERα (Homo sapiens, UniProt P03372); assay: ERα expression in MCF-7 cell lysates (immunoblot); format: cell-based; settings: MCF-7 cells, 100 nM compound, serum-free medium, 24 hours, immunoblot band intensity
T1 construct: ERα expression was detected in MCF-7 cell lysates treated with 100 nM antiestrogens in serum-free medium for 24 hours; endogenous in cells; host or cells: MCF-7
T1 sequence (P03372 1-595): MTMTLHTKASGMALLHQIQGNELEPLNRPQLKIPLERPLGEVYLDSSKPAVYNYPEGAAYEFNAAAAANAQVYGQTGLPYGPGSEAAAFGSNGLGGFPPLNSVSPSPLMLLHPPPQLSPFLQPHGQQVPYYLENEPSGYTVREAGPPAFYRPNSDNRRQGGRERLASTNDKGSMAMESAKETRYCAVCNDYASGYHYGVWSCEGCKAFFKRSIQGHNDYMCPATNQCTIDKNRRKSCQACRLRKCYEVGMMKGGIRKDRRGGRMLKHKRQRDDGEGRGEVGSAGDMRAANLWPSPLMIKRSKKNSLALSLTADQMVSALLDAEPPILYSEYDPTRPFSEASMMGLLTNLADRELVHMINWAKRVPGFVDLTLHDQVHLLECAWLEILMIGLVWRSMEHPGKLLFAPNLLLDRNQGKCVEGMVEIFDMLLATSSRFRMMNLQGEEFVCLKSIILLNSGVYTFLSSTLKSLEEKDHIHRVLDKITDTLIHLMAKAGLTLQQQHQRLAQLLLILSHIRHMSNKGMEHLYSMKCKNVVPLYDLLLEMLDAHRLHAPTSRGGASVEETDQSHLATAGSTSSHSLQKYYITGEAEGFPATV
Experimental: ERα expression was detected in MCF-7 cell lysates treated with 100 nM antiestrogens in serum-free medium for 24 hours and immunoblotted with an antibody specific to ERα.
Band intensity was normalized relative to vehicle for each individual experiment and listed in Table 3 (Relative change ERα levels (% vehicle)).

[3] = test system: estrogen-responsive reporter gene (ERE-tk109-Luc) in MCF-7 cells; assay: Inhibition of E2-induced transcription, ERE-tk109-Luc reporter gene in MCF-7 cells; format: cell-based, human; settings: 100 pM 17β-estradiol (E2), 18-22 hours, read-out: IC50, inhibition of E2-induced transcription in breast cells
Experimental: Representative compounds were tested for their inhibitory activity of estrogen according to the assay methods described in Hodges-Gallagher, L., Valentine, C. V., El Bader, S. and Kushner, P. J. (2007) “Histone Deacetylase Inhibitors Enhance the Efficacy of Hormonal Therapy Agents on Breast Cancer Cells and Blocks Anti-estrogen-Driven Uterine Cell Proliferation” Breast Cancer Res Treat, November; 105(3):297-309. Specifically, an estrogen-responsive reporter gene (ERE-tk109-Luc) was transiently transfected into MCF-7 cells and treated with anti-estrogens in triplicate in the presence of 100 pM 17β-estradiol (E2) for 18-22 hours. Luciferase activity was normalized to activity of E2 alone and IC50's were calculated using the least squares fit method.

[4] = test system: MCF-7 breast cancer cells; assay: Inhibition of E2-stimulated proliferation of MCF-7 breast cancer cells; format: cell-based, human; settings: 100 pM E2, hormone-depleted medium, 6-8 days
Experimental: Proliferation of MCF-7 breast cancer cells was measured using a fluorescent DNA binding dye 6-8 days after treatment in triplicate with representative compounds in the presence of 100 pM E2 in hormone-depleted medium. IC50's were calculated from individual experiments as in Example 25.

[5] = Homo sapiens, MCF7, MCF-7 cells

For CCCN1CC(Oc2ccc(C3Oc4cc(O)ccc4C(C)=C3c3ccccc3C(C)C)cc2)C1 (centres unmarked) [Compound 119, 3-(2-isopropylphenyl)-4-methyl-2-(4-((1-propylazetidin-3-yl)oxy)phenyl)-2H-chromen-7-ol], the “AP activity (% E2), cells co-treated with 500 pM E2” value (“AP activity (% E2)” below) [1] was 18 % E2, the “Induction of AP activity in uterine cells (% E2)” value (from here on “Induction of AP activity … (% E2)”) [2] was 44 % E2 and the “Relative change ERα levels (% vehicle)” value (ERα) was 36 % veh. The IC50 [3, 5] was 15 nM and the IC50 [4, 5] was 33 nM.

With CCCN1CC(Oc2ccc(C3Oc4cc(O)ccc4C(C)=C3c3ccc(O)cc3)cc2)C1 (single isomer, unassigned) [Compound 106, 3-(4-hydroxyphenyl)-4-methyl-2-(4-((1-propylazetidin-3-yl)oxy)phenyl)-2H-chromen-7-ol] the “AP activity (% E2)” value [1] was 44 % E2, the “Induction of AP activity … (% E2)” value [2] was 17 % E2 and the “Relative change ERα levels (% vehicle)” value (ERα) was 53 % veh. For the same molecule, the IC50 ([3]; MCF-7 cells) was 54 nM and the IC50 ([4]; MCF-7 cells) was 114 nM.

In the case of CCCN1CC(Oc2ccc(C3Oc4cc(O)ccc4C(C)=C3c3ccccc3Cl)cc2)C1 (centres unmarked) [Compound 120, 3-(2-chlorophenyl)-4-methyl-2-(4-((1-propylazetidin-3-yl)oxy)phenyl)-2H-chromen-7-ol], the “AP activity (% E2)” value [1] is reported as 14 % E2, the “Induction of AP activity … (% E2)” value [2] is reported as 12 % E2 and the “Relative change ERα levels (% vehicle)” value (ERα) is reported as 61 % veh. For the same molecule, the IC50 [3, 5] was 8 nM and the IC50 [4, 5] was 10 nM.

With CCCN1CC(Oc2ccc(C3Oc4cc(O)ccc4C(C)=C3c3ccc(O)cc3)cc2F)C1 (centres unmarked) [Compound 107, 2-(3-fluoro-4-((1-propylazetidin-3-yl)oxy)phenyl)-3-(4-hydroxyphenyl)-4-methyl-2H-chromen-7-ol] the “AP activity (% E2)” value [1] was 4 % E2, the “Induction of AP activity … (% E2)” value [2] was 3 % E2 and the IC50 [3, 5] was 5 nM. For the same molecule, the IC50 [4, 5] was 13 nM.

With CCCN1CC(Oc2ccc(C3Oc4cc(O)ccc4C(C)=C3c3ccccc3)cc2)C1 (single isomer, unassigned) [Compound 118, 4-methyl-3-phenyl-2-(4-((1-propylazetidin-3-yl)oxy)phenyl)-2H-chromen-7-ol] the “AP activity (% E2)” value [1] was 16 % E2, the “Induction of AP activity … (% E2)” value [2] was 104 % E2 and the “Relative change ERα levels (% vehicle)” value (ERα) was 55 % veh. For the same molecule, the IC50 ([3]; MCF-7 cells) was 254 nM and the IC50 ([4]; MCF-7 cells) was 132 nM.

CCCN1CC(Oc2ccc(C3Oc4cc(O)ccc4C(C)=C3c3ccc(O)cc3)cc2F)C1 (single isomer, unassigned) [Compound 108, 2-(3-fluoro-4-((1-propylazetidin-3-yl)oxy)phenyl)-3-(4-hydroxyphenyl)-4-methyl-2H-chromen-7-ol] was tested, and the “AP activity (% E2)” value [1] was 4 % E2, the “Induction of AP activity … (% E2)” value [2] was 3 % E2 and the IC50 ([3]; MCF-7 cells) was 1 nM. For the same molecule, the IC50 ([4]; MCF-7 cells) was 9 nM.

For CCCN1CC(Cc2ccc(C3Oc4cc(O)ccc4C(C)=C3c3ccc(O)cc3)cc2)C1 (single isomer, unassigned) [Compound 103, 3-(4-hydroxyphenyl)-4-methyl-2-(4-((1-propylazetidin-3-yl)methyl)phenyl)-2H-chromen-7-ol], the “AP activity (% E2)” value [1] was 36 % E2, the “Induction of AP activity … (% E2)” value [2] was 23 % E2 and the “Relative change ERα levels (% vehicle)” value (ERα) was 55 % veh. The IC50 ([3]; MCF-7 cells) was 27 nM and the IC50 ([4]; MCF-7 cells) was 59 nM.

With CCCN1CC(Cc2ccc(C3Oc4cc(O)ccc4C(C)=C3c3ccc(O)cc3)cc2F)C1 (single isomer, unassigned) [Compound 112, 2-(3-fluoro-4-((1-propylazetidin-3-yl)methyl)phenyl)-3-(4-hydroxyphenyl)-4-methyl-2H-chromen-7-ol] the “AP activity (% E2)” value [1] was 4 % E2, the “Induction of AP activity … (% E2)” value [2] was 5* % E2 and the “Relative change ERα levels (% vehicle)” value (ERα) was 35 % veh. The IC50 ([3]; MCF-7 cells) was 2 nM and the IC50 ([4]; MCF-7 cells) was 7 nM.

In the case of CCCN1CC(Oc2ccc(C3Oc4cc(O)ccc4C(C)=C3c3ccc(O)cc3)cc2)C1 (single isomer, unassigned) [Compound 105, 3-(4-hydroxyphenyl)-4-methyl-2-(4-((1-propylazetidin-3-yl)oxy)phenyl)-2H-chromen-7-ol], the “AP activity (% E2)” value [1] is reported as 4 % E2, the “Induction of AP activity … (% E2)” value [2] is reported as 4 % E2 and the “Relative change ERα levels (% vehicle)” value (ERα) is reported as 39 % veh. It also gave an IC50 ([3]; MCF-7 cells) of 4 nM and an IC50 ([4]; MCF-7 cells) of 10 nM.

For CCCN1CC(Oc2ccc(C3Oc4cc(O)ccc4C(C)=C3c3ccc(F)cc3)cc2)C1 (centres unmarked) [Compound 115, 3-(4-fluorophenyl)-4-methyl-2-(4-((1-propylazetidin-3-yl)oxy)phenyl)-2H-chromen-7-ol], the “AP activity (% E2)” value [1] was 42 % E2, the “Induction of AP activity … (% E2)” value [2] was 20 % E2 and the IC50 [3, 5] was 10 nM. It also gave an IC50 [4, 5] of 15 nM.

CCCN1CC(Oc2ccc(C3Oc4cc(O)ccc4C(C)=C3c3ccc(O)cc3)cc2)C1 (centres unmarked) [Compound 104, 3-(4-hydroxyphenyl)-4-methyl-2-(4-((1-propylazetidin-3-yl)oxy)phenyl)-2H-chromen-7-ol] was tested, and the “AP activity (% E2)” value [1] was 4 % E2, the “Induction of AP activity … (% E2)” value [2] was 5 % E2 and the “Relative change ERα levels (% vehicle)” value (ERα) was 44 % veh. It also gave an IC50 [3, 5] of 2 nM and an IC50 [4, 5] of 6 nM.

For CCCN1CC(Cc2ccc(C3Oc4cc(O)ccc4C(C)=C3c3ccc(O)cc3)cc2)C1 (centres unmarked) [Compound 101, 3-(4-hydroxyphenyl)-4-methyl-2-(4-((1-propylazetidin-3-yl)methyl)phenyl)-2H-chromen-7-ol], the “AP activity (% E2)” value [1] was 8 % E2, the “Induction of AP activity … (% E2)” value [2] was 9 % E2 and the “Relative change ERα levels (% vehicle)” value (ERα) was 51 % veh. The IC50 [3, 5] was 3 nM and the IC50 [4, 5] was 7 nM.

CCCN1CC(Oc2ccc(C3Oc4cc(O)ccc4C(C)=C3c3ccccc3)cc2)C1 (single isomer, unassigned) [Compound 117, 4-methyl-3-phenyl-2-(4-((1-propylazetidin-3-yl)oxy)phenyl)-2H-chromen-7-ol] was tested, and the “AP activity (% E2)” value [1] was 8 % E2, the “Induction of AP activity … (% E2)” value [2] was 16 % E2 and the “Relative change ERα levels (% vehicle)” value (ERα) was 45 % veh. It also gave an IC50 ([3]; MCF-7 cells) of 4 nM and an IC50 ([4]; MCF-7 cells) of 33 nM.

With CCCN1CC(Oc2ccc(C3Oc4cc(O)ccc4C(C)=C3c3ccccc3)cc2)C1 (centres unmarked) [Compound 114, 4-methyl-3-phenyl-2-(4-((1-propylazetidin-3-yl)oxy)phenyl)-2H-chromen-7-ol] the “AP activity (% E2)” value [1] was 23 % E2, the “Induction of AP activity … (% E2)” value [2] was 15 % E2 and the IC50 [3, 5] was 5 nM. The IC50 [4, 5] was 14 nM.

In the case of CCCN1CC(Oc2ccc(C3Oc4cc(O)ccc4C(C)=C3c3ccc(O)cc3)cc2F)C1 (single isomer, unassigned) [Compound 109, 2-(3-fluoro-4-((1-propylazetidin-3-yl)oxy)phenyl)-3-(4-hydroxyphenyl)-4-methyl-2H-chromen-7-ol], the “AP activity (% E2)” value [1] is reported as 42 % E2, the “Induction of AP activity … (% E2)” value [2] is reported as 18 % E2 and the IC50 ([3]; MCF-7 cells) is reported as 109 nM. The IC50 ([4]; MCF-7 cells) was 40 nM.

With CCCN1CC(Oc2ccc(C3Oc4cc(O)ccc4C(C)=C3c3ccc(F)cc3Cl)cc2)C1 (centres unmarked) [Compound 116, 3-(2-chloro-4-fluorophenyl)-4-methyl-2-(4-((1-propylazetidin-3-yl)oxy)phenyl)-2H-chromen-7-ol] the “AP activity (% E2)” value [1] was 24 % E2, the “Induction of AP activity … (% E2)” value [2] was 9 % E2 and the IC50 [3, 5] was 5 nM. The IC50 [4, 5] was 5 nM.
